One may read the melting point as the temperature, or range, at which the solid turns liquid.

These results are taken from patent US6583145B1, “Thio-oxindole derivatives” (Wyeth, priority 1999, dated 2003).

Tested on in one data set: not given
Assay: not given
Conditions: not given
`CC1(C)C(=S)Nc2ccc(-c3coc(C#N)c3)cc21` [Example 18, 4-(3,3-Dimethyl-2-thioxo-2,3-dihydro-1H-indol-5-yl)-2-furonitrile]: the melting point fell in the range of 188 to 191 °C. Still for that read-out and setting: for `ON=C1Nc2ccc(-c3ccc(F)cc3)cc2C12CCCCC2` [Example 47, 5′-(4-Fluorophenyl)spiro[cyclohexane-1,3′-[3H]indol]-2′(1′H)-one Oxime] the value was 205 to 208 °C.

Molecule `N#Cc1cccc(-c2ccc3c(c2)C2(CCCCC2)C(=NO)N3)c1` [Example 51, 5′-(3-Cyanophenyl)spiro[cyclohexane-1,3′-[3H]indol]-2′(1′H)-one Oxime] had a melting point of 198 to 200 °C. Still for that read-out and setting: for `COc1cccc(-c2ccc3c(c2)C2(CCCCC2)C(=NO)N3)c1` [Example 49, 5′-(3-Methoxyphenyl)spiro[cyclohexane-1,3′-[3H]indol]-2′(1′H)-one Oxime] the value was 101 to 104 °C; for `N#Cc1cccc(-c2ccc3c(c2)C2(CCCCC2)C(=S)N3)c1` [Example 2, 3-(1′,2′-Dihydro-2′-thioxospiro[cyclohexane-1,3′-[3H]indol]-5′-yl)benzonitrile], > 231 °C (dec.).

For a further data set, the system named is rat uterine decidualization. Briefly: Rat decidualization assay. The following applies: s.c.; average of the dose-response curves.
Regarding `C#C[C@]1(O)CC[C@H]2[C@@H]3CCC4=CC(=O)CC[C@@H]4[C@H]3C(=C)C[C@@]21CC` [3-Ketodesogestrel], the “Estimated average EC50 (decidual response)” value was 0.10 mg/kg.
